The source of these data is patent US20210163453A1, “DERIVATIVES OF PAPAVERINE THAT ARE EFFECTIVE HYPOXIC TUMOR RADIOSENSITIZERS” (Ohio State Innovation Foundation, priority 2018, published 2021).

As a reminder, the IC20 is the concentration at which the effect reaches the 20% level. In general, IC50 refers to the concentration that inhibits the measured activity by half.

Entries after “also recorded” stand apart in the source; their conditions may differ. Counter-ions that a name gives are not always drawn.

The test system of data set [1] is EO771 tumors. Briefly: Tumor growth delay of EO771 tumors with radiation (XRT). Format: in vivo, mice. The note with it: heterotopic EO771 flank tumors, nude mice, 2 mg/kg 35 minutes prior to 5 Gy. How it is done:
(§1) P values were calculated against thigh muscle with two-tailed two-sample t test. FIG. 3B-3C show normalized tissue oxygenation in EO771 (b) or A549 (c) tumor-bearing mice after injection of 2 mg/kg PPV or vehicle saline (readings taken every minute, and curve is average of 5 traces). P value was analyzed by linear mixed model with autoregressive correlation structure at T=30-40 minutes. […] Values are mean area covered by pimonidazole-positive cells evaluated from 20 images per animal+−SEM. P value was calculated with two-tailed two-sample t test. […] Curves represent mean tumor volumes+−SEM. P values were calculated against XRT with two-tailed two-sample t test.
FIGS. 4A-4G show tumor growth before and after radiosensitization with PPV. FIG. 4A-4B show in vitro radiation survival assessment of A549 cell line treated with 10 μm PPV in normoxia (FIG. 4A) and anoxia (FIG. 4B). […] Values represent averaged colony counts+−standard deviation. […] Values are mean tumor volumes+−SEM. […] Values are mean tumor volumes+−SEM. FIG. 4E-4F show tumor growth delay. When tumors reached 4-fold volume increase, groups receiving no treatment or PPV only (FIG. 4E); and XRT only or PPV followed by XRT (FIG. 4F), tumor weights were compared. Values are mean tumor weights+−SEM (n=8). P values were calculated with two-tailed two-sample t test. FIG. 4G are related to FIG. 4E-4F tumor growth delay. Representative images of orthotopic EO771 tumors harvested on day 11 after treatment with XRT (top) or 2 mg/kg PPV followed by XRT (bottom). *P<0.05; **P<0.01; ***P<0.001; ****P<0.0001; n.s., not significant.
(§2) Bar graphs represent the mean area covered by pimonidazole-positive cells evaluated from 20 images per animal+−standard error of the mean. P value was calculated against control with two-tailed two-sample t test. […] Mean volumes+−SEM. P values were calculated against XRT with two-tailed two-sample t test. *P<0.05; **P<0.01; ***P<0.001; ****P<0.0001; n.s., not significant.
Tumor Growth kinetics. 2×10^6 EO771 or 5×10^6 A549 cells were injected s.c. into the flanks of 6-week old female immunocompetent C57/B6 (EO771) or immunocompromised nu/nu (A549) mice. Caliper measurements of opposing diameter were used to calculate the tumor volumes. Upon reaching […], the tumors were visualized by cone beam CT and treatment plans calculated using SARRP software. X-rays were delivered with a single beam delivering 5 Gy using the Small Animal Research Radiation Platform (SARRP, Xstrahl). Tumor volumes were measured until the post treatment volume increased 3-fold. Error bars represent standard deviation.
Both models of transplanted tumors that were used for the oxygenation experiments of papaverine's effect on radiation response in vivo were investigated. The murine breast cancer line EO771 that is syngeneic with the BL6 strain of mice was used and transplanted it orthotopically into the mammary fat pad of immune-competent mice. Also used was the human A549 lung adenocarcinoma line that was transplanted into the flank of immune-deficient mice. The breast cancers grew to approximately 150 mm^3 and were then randomized to receive either no treatment, a single dose of either 5 Gy, or papaverine at 2 mg/kg followed 30-40 minutes later by 5 Gy.

For the next data set, the system named is mitochondrial complex 1. Nature of the data set: Seahorse OCR inhibition of PPV derivatives, normalized to PPV. The following applies: for Inhibitory activity OCR % of PPV: Seahorse, OCR inhibition at 10 μM concentration, normalized to PPV. Format: cell-based. How it is done:
(§3) FIGS. 7A-7D show OCR and cellular toxicity data. […]. Bars represent mean OCR and PDE10 inhibitory activities from at least 5 (OCR) or 3 (PDE) replicates. All experiments were repeated at least twice. […] Values are mean+−SEM.
(§4) Seahorse analysis of the OCR. Oxygen consumption rate (OCR) was measured using Seahorse XF96 Flux Analyzer (Agilent Technologies). The cells were seeded to attach overnight, wells were washed with pre-warmed XF Calibrant (Agilent Technologies) and the replaced with unbuffered Assay Medium (pH 7.4, 5 mM glucose, 1 mM L-glutamine). The plates were incubated at 37° C. in a CO2-free incubator for 2 hours prior to assay. For succinate rescue assay, cells were permeabilized using XF Plasma Membrane Permeabilizer Reagent (XF PMP, Agilent Technologies) according to the manufacturer's instructions. The OCR rate was measured in 1× Mitochondrial Assay Solution (MAS) (70 mM sucrose, 220 mM mannitol, 10 mM KH2PO4, 5 mM MgCl2, 2 mM Hepes, 0.6% (w/v) fatty acid-free BSA and 1 mM EGTA; pH 7.4). After baseline oxygenation was established, 1 μM rotenone or 10 μM PPV was injected at time A, followed by 5 mM succinate at time B. Error bars represent standard deviation. For the washout experiment, EO771 cells were seeded overnight, then treated with 10 μM PPV or 1 μM rotenone 3 hours prior to OCR measurement. Media was replaced 1 and 2 hours before measurement and OCR reported.
Because PPV's effect on mitochondrial function is independent of cAMP levels it was reasoned that there are two activities in PPV, one inhibiting complex 1 and one inhibiting PDE10A that may reside in different parts of the molecule. The structure activity relationship of PPV relative to two assays was assessed: inhibition of cellular OCR by Seahorse, and inhibition of PDE10A by purified enzyme activity in multiwell plate (PDE10A activity assay kit, BPS Bioscience). Because PPV can compete with rotenone as complex 1 inhibitors, it was reasoned that they may be binding the same site and therefore the structures would be similar relative to the mitochondrial binding target. […] Because the top was a planar structure similar to that of rotenone, and they compete with each other for the same binding pocket on complex 1 (FIG. 10) the lower portion of the molecule and how it may resemble rotenone were investigated in more detail. It was established that flexible linkage was preferred for mitochondrial activity and bulky adducts to the lower benzene ring may block it (FIG. 7C). […] These lead compounds were synthesized from commercial precursors and purified on silica gel column. Structures were confirmed by ^1H NMR and found to be >95% pure by HPLC.

In data set [2] the test system is EO771 tumors. Briefly: Pimonidazole staining, hypoxic fraction of EO771 tumors. Format: in vivo, mice. The note with it: orthotopic EO771, immune-competent mice, 2 mg per kg. How it is done: as §1, §2
Pimonidazole staining. […] […] […] The hypoxic fraction of each tumor was quantified by thresholding signal at 50% of the maximum signal on control sections. Area covered by pimonidazole-positive cells was evaluated from 20 images per animal and averaged. Error bars represent the standard deviation.

A further data set has as its target T1, PDE10A (Homo sapiens, UniProt Q9Y233).
T1 construct: purchased BPS Bioscience
Briefly: PDE10A enzymatic assay (PDE10A activity assay kit, BPS Bioscience). Format: biochemical. The following applies: for Inhibitory activity PDE10A % of PPV: PDE10A inhibition at 1 μM, normalized to PPV. How it is done: FIGS. 7A-7D show OCR and cellular toxicity data. […] Bars represent mean OCR and PDE10 inhibitory activities from at least 5 (OCR) or 3 (PDE) replicates. All experiments were repeated at least twice. […] Values are mean+−SEM. […]
The structure activity relationship of PPV relative to two assays was assessed: inhibition of cellular OCR by Seahorse, and inhibition of PDE10A by purified enzyme activity in multiwell plate (PDE10A activity assay kit, BPS Bioscience). […] These lead compounds were synthesized from commercial precursors and purified on silica gel column.

Another data set has as its system A549 cells. Nature of the data set: Seahorse OCR in A549 cells (dose response, IC50, washout). Format: cell-based, Human.
The nature of data set [3]: Cellular toxicity of PPV derivatives by trypan blue. It is filed as cell-based. The note with it: 10 uM, 72 h. How it is done:
as §3
Experimental: Cell lines. All cell lines were purchased from the American Type Culture Collection (ATCC) and grown DMEM (Corning) supplemented with 10% FBS (Seradigm) and 1% Penicillin/Streptomycin (Fisher Bioreagents) at 37° C. in 5% CO2. Cells were treated with inhibitors papaverine hydrochloride (Sigma-Aldrich), rotenone (Sigma-Aldrich), piericidin A (Santa Cruz), capsaicin (Sigma-Aldrich), antimycin A (Sigma-Aldrich) and succinic acid disodium salt (Sigma-Aldrich). Cell viability was assessed by trypan blue exclusion.

Data set [4] has as its system oxygen consumption (mitochondrial function). Nature of the data set: Seahorse XF analysis of oxygen consumption in vitro, cell line not stated. Format: cell-based. How it is done:
as §4

The subject of data set [5] is A549 NDUFV1 KO NDI1 cells. It is filed as cell-based, Human. The note with it: 10 μM papaverine or 1 μM rotenone.
For the next data set, the system named is Panc1 cells. Nature of the data set: Seahorse OCR in Panc1 cell line. Format: cell-based, Human. The following applies: increasing concentrations (sildenafil citrate 0, 5, 10, 20; 8-Bromo-cAMP 0, 10, 20). How it is done: FIGS. 7A-7D show OCR and cellular toxicity data. […] Bars represent mean OCR and PDE10 inhibitory activities from at least 5 (OCR) or 3 (PDE) replicates. All experiments were repeated at least twice. […] Values are mean+−SEM.
as §4

T1 sequence (Q9Y233 267-1055): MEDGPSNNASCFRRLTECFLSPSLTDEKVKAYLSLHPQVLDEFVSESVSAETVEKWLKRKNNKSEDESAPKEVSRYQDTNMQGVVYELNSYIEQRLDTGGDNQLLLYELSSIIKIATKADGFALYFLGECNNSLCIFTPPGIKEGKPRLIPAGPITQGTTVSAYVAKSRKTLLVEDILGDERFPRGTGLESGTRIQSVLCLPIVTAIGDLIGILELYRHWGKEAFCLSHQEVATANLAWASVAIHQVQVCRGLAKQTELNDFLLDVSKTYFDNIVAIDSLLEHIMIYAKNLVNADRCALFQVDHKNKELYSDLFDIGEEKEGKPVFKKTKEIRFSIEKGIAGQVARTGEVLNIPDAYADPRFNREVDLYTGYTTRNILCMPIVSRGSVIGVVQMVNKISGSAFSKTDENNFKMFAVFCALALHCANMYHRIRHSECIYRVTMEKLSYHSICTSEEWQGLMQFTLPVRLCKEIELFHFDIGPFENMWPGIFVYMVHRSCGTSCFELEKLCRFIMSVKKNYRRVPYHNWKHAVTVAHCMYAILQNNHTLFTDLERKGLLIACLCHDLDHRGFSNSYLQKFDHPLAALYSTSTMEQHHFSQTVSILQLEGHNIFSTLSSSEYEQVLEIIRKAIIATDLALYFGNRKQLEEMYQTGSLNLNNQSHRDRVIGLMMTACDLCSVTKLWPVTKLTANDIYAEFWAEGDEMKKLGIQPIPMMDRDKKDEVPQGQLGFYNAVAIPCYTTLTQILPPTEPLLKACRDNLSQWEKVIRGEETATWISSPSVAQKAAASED

On to `COc1cc2ccnc(Cc3cc(C)cc(C)c3)c2cc1OC` [SMV-23], for which, in the data set on EO771 tumors [1], the “growth delay compared to radiation alone” value was “no increase in growth delay”. Moreover, the “Inhibitory activity OCR % of PPV” value in the data set with mitochondrial complex 1 is 20.37 % of PPV. The “complex 1 activity compared to PPV” value in the data set on mitochondrial complex 1 (compared to PPV) is on record as 20%. Moreover, in the data set on EO771 tumors [2], the “tumor hypoxia by pimonidazole staining” value is “no effect on hypoxia”. Also, the IC20 on PDE10A (PDE10A2 enzymatic assay, n=3 replicates, read-out: PDE IC20 (PDE10A IC20)) was 0.5 µM. Further, on PDE10A, the “Inhibitory activity PDE10A % of PPV” value is on record as 121.49 % of PPV. Besides, the “PDE10 activity compared to PPV” value at PDE10A (compared to PPV) is 125%. Also, in the data set on A549 cells (Homo sapiens, A549 cells by Seahorse, n=5 replicates, read-out: mitochondrial IC50 (OCR IC50)), the IC50 came to 94 µM. Further, in data set [3], the “cellular toxicity in vitro” value is on record as “Neither of these compounds shows cellular toxicity”.
On to `Cc1cccc(CN2CCN(C(c3ccccc3)c3ccc(Cl)cc3)CC2)c1` (centres unmarked) [meclizine], for which the “inhibition of oxygen consumption / mitochondrial function in vitro” value in data set [4] is reported as “effective at inhibiting oxygen consumption”.
For `C=C(C)[C@H]1Cc2c(ccc3c2O[C@@H]2COc4cc(OC)c(OC)cc4[C@@H]2C3=O)O1` [rotenone], the “Inhibitory activity OCR % of PPV” value with mitochondrial complex 1 is listed as 193 % of PPV. Also, the “response of mitochondria (OCR) to drug” value in data set [5] is “resistant”. In addition, the “Inhibitory activity PDE10A % of PPV” value at PDE10A is reported as 0 % of PPV. In the data set with A549 cells (1 μM rotenone, media replaced), the “reversibility of OCR inhibition in washout” value was “no restoration in 3 hours; also recorded: irreversible inhibitor”.
`COc1ccccc1OCC(O)CN1CCN(CC(=O)Nc2c(C)cccc2C)CC1` (centres unmarked) [ranolazine]: in data set [4], the “inhibition of oxygen consumption / mitochondrial function in vitro” value is recorded as “effective at inhibiting oxygen consumption”.
For `CCCc1nn(C)c2c(=O)[nH]c(-c3cc(S(=O)(=O)N4CCN(C)CC4)ccc3OCC)nc12` [sildenafil citrate], the “effect on OCR” value in the data set with Panc1 cells was “no effect”.
For `CN(C)C(=N)N=C(N)N` [Metformin], in data set [4], the “inhibition of oxygen consumption / mitochondrial function in vitro” value is “effective at inhibiting oxygen consumption”.
